# Experimental data from article PMC5923123, “In Vitro and In Vivo Efficacy of a Novel and Long-Acting Fungicidal Azole, PC1244, on Aspergillus fumigatus Infection” (Antimicrobial Agents and Chemotherapy, 2018).
# Where “and” joins values, the source holds several entries; their conditions need not be identical. Equal entries are not always repeated. Where two headings read alike, the source gives them in different places.
# Columns and labels:
# [1] = tested on: BEAS2B cells infected with A. fumigatus; assay: Persistence of action in bronchial epithelial cells (galactomannan in supernatant); format: cell-based, Aspergillus fumigatus; details: for IC50: Aspergillus fumigatus, BEAS-2B, GM readout
# Protocol: In a second system, the persistence of the action of the same three agents on A. fumigatus-infected bronchial epithelial cells was quantified using galactomannan (GM) production in the culture supernatant as an index of fungal growth. BEAS2B cells were infected with A. fumigatus, and the effects of a 24-h washout period (medium change) prior to infection were examined.
# The persistence of action of the test agents was evaluated in immortalized bronchial epithelial cells (BEAS2B cells) as previously reported ([28]). […] The plate was incubated for exactly 1 h at 37°C in 5% CO2. After the incubation time had elapsed, all wells on the washout plate were aspirated and growth medium (100 μl/well) was added across the plate. […] The plate was incubated for exactly 1 h at 37°C in 5% CO2, after which A. fumigatus conidia were added across both plates at a final concentration of 1 × 10^3/well. […] This study was conducted in triplicate in three independent experiments.
# A. fumigatus (NCPF2010) [2] = assay: Fungicidal activity by XTT colorimetric method (XTT-MFC); details: for MFC: NCPF2010, read-out: XTT-MFC
# Protocol: In addition, the fungicidal effect of each compound was determined using 2,3-bis-(2-methoxy-4-nitro-5-sulfophenyl)-2H-tetrazolium-5-carboxanilide salt (XTT)-based quantitative colorimetric analysis (XTT-MFC).
# After the removal of medium for culture-based testing of the number of CFU, the contents of all wells were carefully aspirated and warm PBS (200 μl/well) was added. After gentle agitation, the contents of all wells were aspirated and fresh medium was added (200 μl/well). The plates were incubated (35°C with ambient air) for 24 h. […] The plates were incubated (35°C with ambient air) for 2 h, after which the plates were agitated gently for 2 min. The optical density (OD) of each well at 450 nm and 620 nm was measured using a multiscanner (Clariostar; BMG, Buckinghamshire, UK).
# [3] = tested on: Lichtheimia corymbifera (ATCC 7909); assay: CLSI MIC; format: cell-based; details: ATCC7909, 1 strain
# A. fumigatus (NCPF2010) [4] = assay: Broth microdilution MIC (96-well) preceding MFC determination; details: Aspergillus fumigatus
# Protocol: (§2) After the MIC for each compound was recorded, fungicidal activity was determined as previously described ([35]). Briefly, medium from each well (100 μl/well) was removed after pipetting up and down five times and subcultured onto 4% Sabouraud dextrose agar plates. The plates were incubated (35°C with ambient air) for 48 h, and the numbers of CFU were counted for each compound concentration. The minimum fungicidal concentration (MFC) was determined as the lowest compound concentration yielding 3 colonies or less.
# [5] = tested on: Penicillium chrysogenum (ATCC 9480); assay: CLSI MIC; format: cell-based; details: ATCC9480, 1 strain
# [6] = tested on: Trichophyton rubrum (ATCC 10218); assay: CLSI MIC; format: cell-based; details: ATCC10218, 1 strain
# A. fumigatus (NCPF2010) [7] = assay: Fungicidal activity by subculture on agar (CFU-MFC); details: for MFC: Aspergillus fumigatus, NCPF2010, 48 h, read-out: CFU-MFC
# Protocol: as §2
# [8] = tested on: Rhizopus oryzae(ATCC 11145); assay: CLSI MIC; format: cell-based; details: Rhizopus arrhizus, ATCC11145, 1 strain
# [9] = tested on: 96 clinically isolated A. fumigatus strains; assay: EUCAST MIC against clinical isolates (visual); format: cell-based, Aspergillus fumigatus; details: 96 clinical isolates, visual; for MIC50 / MIC90 / MIC: Aspergillus fumigatus
# Text: The antifungal activity of PC1244 was further evaluated against 96 clinical isolates (obtained from Saint Louis Hospital, Paris, France [50 isolates], and the North West England Mycology Reference Centre, Manchester, UK [46 isolates]). […] .
# [10] = tested on: Cryptococcus neoformans (ATCC 24067); assay: CLSI MIC; format: cell-based
# A. fumigatus NCPF2010 = assay: EUCAST broth microdilution growth inhibition (OD 530 nm, 384-well); format: cell-based; details: Aspergillus fumigatus, strain NCPF2010 (ITC-susceptible), 48 h, range tested 0.002 to 1 μg/ml
# Protocol: (§1) The antifungal activities of the test compounds against A. fumigatus strains (itraconazole [ITC]-susceptible strains NCPF2010, AF294, and AF293; ITC-resistant strains AF72 and AF91) were calculated from growth curves generated by spectrophotometric analysis and compared to the activities against positive and negative controls.
# A. fumigatus AF72 = assay: as above; format: cell-based; details: Aspergillus fumigatus, strain AF72 (ITC-resistant), 48 h
# Protocol: as §1
# A. fumigatus AF293 = assay: as above; format: cell-based; details: Aspergillus fumigatus, strain AF293 (ITC-susceptible), 48 h
# Protocol: as §1
# A. fumigatus AF294 = assay: as above; format: cell-based; details: Aspergillus fumigatus, strain AF294 (ITC-susceptible), 48 h
# Protocol: as §1
# A. fumigatus AF91 = assay: as above; format: cell-based; details: Aspergillus fumigatus, strain AF91 (ITC-resistant), 48 h
# Protocol: as §1
# [11] = tested on: A. fumigatus hyphae (NCPF2010); assay: Persistence of action on A. fumigatus hyphae (resazurin microtiter assay); format: cell-based, Aspergillus fumigatus; details: Aspergillus fumigatus, NCPF2010
# Protocol: The duration of action of test agents within the hyphae of A. fumigatus has been determined using a resazurin-based microtiter assay ([28]).
# The persistence of action of the test agents against A. fumigatus hyphae (NCPF2010) was determined as previously reported ([28]). […] The plates were incubated for exactly 20 min at 35°C in 5% CO2. After the incubation time had elapsed, all wells on the designated washout plate were aspirated and growth medium (100 μl/well) was added across the plate. […] Resazurin (0.04% diluted in growth medium) was added to all wells of both the nonwashout and washout plates (5 μl/well) to give a final concentration of 0.002% resazurin. The plates were incubated at 35°C in 5% CO2 for 16 h. Subsequently, the fluorescence in each well was measured at an excitation λ of 545 nm and an emission λ of 600 nm using a multiscanner (Clariostar; BMG, Buckinghamshire, UK). […] This study was conducted in quadruplicate in three independent experiments.
# [12] = tested on: Aureobasidium pullulans (ATCC 348); assay: CLSI MIC; format: cell-based; details: ATCC348, 1 strain
# [13] = tested on: Chaetomium globosum (ATCC 44699); assay: CLSI MIC; format: cell-based; details: ATCC44699, 1 strain
# [14] = tested on: ergosterol production in A. fumigatus (NCPF2010); assay: A. fumigatus cell-based ergosterol assay; details: Aspergillus fumigatus, NCPF2010, 24 h, read-out: IC50, inhibition of ergosterol production
# Protocol: CYP51 enzyme-inhibitory activity was also measured in a cell-based assay, as described previously ([28]). In this plate-based ergosterol quantification experiment, oxidation of ergosterol by cholesterol oxidase was determined by observing the conversion of the weakly fluorescent resazurin to the highly fluorescent resorufin and was normalized using crystal violet staining (indicating cell number).
# After incubation for 24 h at 35°C, the medium was removed from all wells and replaced with reaction buffer (catalog number A12216; Amplex red cholesterol assay kit; Thermo Fisher) and Amplex red solution. The plates were incubated for 30 min at 37°C with protection from light, after which the fluorescence was quantified using a spectrophotometer. The medium was removed from all wells and replaced with crystal violet solution (1%, vol/vol), and the plates were incubated at room temperature on a shaker for 30 min. The plates were washed three times with phosphate-buffered saline (PBS), and sodium dodecyl sulfate solution (0.1%, vol/vol) was added across the plate to lyse the cells. After incubation at room temperature for 1 h, the absorbance (OD) at 590 nm was measured using a spectrophotometer.
# [15] = tested on: Aspergillus flavus (ATCC 204304); assay: CLSI MIC; format: cell-based
# [16] = tested on: Mucor circinelloides (ATCC 8542); assay: CLSI MIC; format: cell-based; details: ATCC8542, 1 strain
# [17] = tested on: Cladosporium argillaceum (ATCC 38013); assay: CLSI MIC; format: cell-based; details: Rhizocladosporium argillaceum, ATCC38013, 1 strain
# [18] = 1 h contact before infection, no washout, read-out: BEAS2B cells IC50 No washout
# [19] = 1 h contact then 24-h washout before infection, read-out: BEAS2B cells IC50 Washout
# [20] = Aspergillus fumigatus, NCPF2010, read-out: maximum inhibition of fungicidal activity
# [21] = 20 min contact, washout, 16 h incubation, read-out: Hyphae IC50 Washout
# [22] = continuous contact 16 h, read-out: Hyphae IC50 No washout
SMILES,"IC50 [1, 18]","IC50 [1, 19]",MFC (A. fumigatus (NCPF2010) [2]; Aspergillus fumigatus),MIC [3],MIC (A. fumigatus (NCPF2010) [4]),MIC [5],MIC [6],MFC (A. fumigatus (NCPF2010) [7]),MIC [8],MIC Range [9],MIC50 [9],MIC90 [9],MIC ([9]; read-out: MIC Geometric mean),MIC ([9]; read-out: MIC Mode),IC50 (A. fumigatus NCPF2010),IC90 (A. fumigatus NCPF2010),IC50 (A. fumigatus AF72),IC90 (A. fumigatus AF72),IC50 (A. fumigatus AF293),IC90 (A. fumigatus AF293),other results
"CC[C@@H]([C@H](C)O)n1ncn(-c2ccc(N3CCN(c4ccc(OC[C@@H]5CO[C@@](Cn6cncn6)(c6ccc(F)cc6F)C5)cc4)CC3)cc2)c1=O [Posaconazole, posaconazole]",0.0031 µg/mL,0.046 µg/mL,0.42 µg/mL,> 8 µg/mL,0.125 µg/mL,0.13 µg/mL,0.031 µg/mL,4 µg/mL,> 8 µg/mL,0.016 to 2 µg/mL,0.063 µg/mL,0.5 µg/mL,0.1 µg/mL,0.032 µg/mL,0.007 µg/mL,0.0084 µg/mL,0.042 µg/mL,0.3 µg/mL,0.01 µg/mL,0.028 µg/mL,"inhibition at 2 µg/mL (A. fumigatus (NCPF2010) [2]; [20]): 100%; XTT-MFC/MIC ratio (A. fumigatus (NCPF2010) [2]; NCPF2010): 3.4; XTT-MFC (A. fumigatus (NCPF2010) [2]; NCPF2010, cutoff 99% inhibition): 0.42 ± 0.020 µg/mL; CFU-MFC/MIC ratio (A. fumigatus (NCPF2010) [7]; NCPF2010): 32; MIC ([10]; ATCC24067, CLSI, 1 strain, read-out: MIC): 0.016 µg/mL; IC50 (A. fumigatus AF294): 0.0056 µg/mL; IC90 (A. fumigatus AF294): 0.011 µg/mL; IC50 (A. fumigatus AF91): 0.038 µg/mL; IC90 (A. fumigatus AF91): 0.049 µg/mL; IC50 [11, 21]: 0.0022 µg/mL; IC50 [11, 22]: 0.00045 µg/mL; MIC [12]: 1 µg/mL; MIC [13]: 0.25 µg/mL; IC50 [14]: 0.012 µg/mL and 17 nM; MIC ([15]; ATCC204304, CLSI, 1 strain, read-out: MIC): 0.13 µg/mL; MIC [16]: > 8 µg/mL; MIC [17]: 0.25 µg/mL"
"C[C@@H](c1ncncc1F)[C@](O)(Cn1cncn1)c1ccc(F)cc1F [Voriconazole, voriconazole]",0.054 µg/mL,> 1 µg/mL,> 32 µg/mL,> 8 µg/mL,1.67 ± 0.58 µg/mL,2 µg/mL,0.063 µg/mL,16 µg/mL,> 8 µg/mL,0.06 to 4 µg/mL,0.5 µg/mL,1 µg/mL,0.42 µg/mL,0.5 µg/mL,0.15 µg/mL,0.21 µg/mL,0.025 µg/mL,0.066 µg/mL,0.25 µg/mL,0.74 µg/mL,"activity after 1-h contact and 24-h washout ([1]; BEAS2B cells): ineffective; inhibition at 32 µg/mL (A. fumigatus (NCPF2010) [2]; [20]): 69.2%; MIC ([10]; ATCC24067): 0.016 µg/mL; IC50 (A. fumigatus AF294): 0.083 µg/mL; IC90 (A. fumigatus AF294): 0.27 µg/mL; IC50 (A. fumigatus AF91): 0.14 µg/mL; IC90 (A. fumigatus AF91): 0.28 µg/mL; IC50 [11, 21]: > 1 µg/mL; IC50 [11, 22]: 0.011 µg/mL; MIC [12]: > 8 µg/mL; MIC [13]: 1 µg/mL; IC50 [14]: 0.067 µg/mL and 190 nM; MIC ([15]; ATCC204304): 2 µg/mL; MIC [16]: > 8 µg/mL; MIC [17]: 0.5 µg/mL"
